Measured values from the supplement of paper PMC4862054.

Columns and labels:
Assay in all cases: drug sensitivity score (DSS), CellTox Green (DSS (AUC-based score)); higher = stronger drug effect (viability inhibition or cytotoxicity); extreme values may be limits of the assay
Settings in all cases: incubation time: 72 h
[1] = system: HCC1143
How it was run: (§1)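 A drug sensitivity score was derived from the area under each fitted dose-response curve. Breast cancer cells (20 µl suspension) were seeded onto compound in 384-well plates, using 5 concentrations 10-fold apart over a compound-specific 10,000-fold range, and incubated 72 h. Readouts were CellTox Green fluorescence and then CellTiter-Glo luminescence, with every plate normalised to 0.1 % DMSO and a positive kill control.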

[2] = system: MDA-MB-468
How it was run: as §1

[3] = system: HDQ-P1
How it was run: as §1

[4] = system: BT-549
How it was run: as §1

[5] = system: CAL-51
How it was run: as §1

[6] = system: MCF-10A
How it was run: as §1

[7] = system: HCC1599
How it was run: as §1

[8] = system: MDA-MB-436
How it was run: as §1

[9] = system: MFM-223
How it was run: as §1

[10] = system: BT-474
How it was run: as §1

[11] = system: CAL-148
How it was run: as §1

[12] = system: CAL-85-1
How it was run: as §1

[13] = system: DU-4475
How it was run: as §1

[14] = system: CAL-120
How it was run: as §1

[15] = system: MDA-MB-453
How it was run: as §1

SMILES	drug sensitivity score [1]	drug sensitivity score [2]	drug sensitivity score [3]	drug sensitivity score [4]	drug sensitivity score [5]	drug sensitivity score [6]	drug sensitivity score [7]	drug sensitivity score [8]	drug sensitivity score [9]	drug sensitivity score [10]	drug sensitivity score [11]	drug sensitivity score [12]	drug sensitivity score [13]	drug sensitivity score [14]	drug sensitivity score [15]
CN1CCC(COc2cnc(-c3cccc(Cn4nc(-c5cccc(C#N)c5)ccc4=O)c3)nc2)CC1	0	0	0	0	0	0	0	0	0	0	0	0.655	0	0	0
CN(C)C/C=C/C(=O)Nc1cc2c(Nc3ccc(F)c(Cl)c3)ncnc2cc1O[C@H]1CCOC1 [Afatinib]	1.18	0	0	0	0	0	0	0	0	3.66	0	8	0	0	0
COc1cc(Nc2ncc3c(n2)-c2ccc(Cl)cc2C(c2c(F)cccc2OC)=NC3)ccc1C(=O)O [Alisertib]	0	32.7	0	5.31	27.9	3.47	0	0	0	2.03	9.1	1.48	0	0	0
CN1CC[C@H](c2c(O)cc(O)c3c(=O)cc(-c4ccccc4Cl)oc23)[C@H](O)C1 [Alvocidib]	0	0	7.43	2.81	4.44	16.1	0	0	7.92	0.211	0	15.3	0	1.81	0
Nc1nc(Cl)nc2c1ncn2[C@H]1C[C@H](O)[C@@H](CO)O1 [Cladribine]	1.86	14.3	0	0	0	0	0	0	3.32	0	0	0	0	0	0
Nc1ccn([C@@H]2O[C@H](CO)[C@@H](O)[C@@H]2O)c(=O)n1 [Cytarabine]	0	0	0	0	13.1	0.944	0	0	0	0	7.92	0	0	0	0
Cc1c2oc3c(C)ccc(C(=O)N[C@@H]4C(=O)N[C@H](C(C)C)C(=O)N5CCC[C@H]5C(=O)N(C)CC(=O)N(C)[C@@H](C(C)C)C(=O)O[C@@H]4C)c3nc-2c(C(=O)N[C@@H]2C(=O)N[C@H](C(C)C)C(=O)N3CCC[C@H]3C(=O)N(C)CC(=O)N(C)[C@@H](C(C)C)C(=O)O[C@@H]2C)c(N)c1=O [Dactinomycin]	1.67	10.7	0	6.35	22.9	15.4	0	0	4.62	2.02	21.3	16.4	0	0	0
COc1cccc2c1C(=O)c1c(O)c3c(c(O)c1C2=O)C[C@@](O)(C(=O)CO)C[C@@H]3O[C@H]1C[C@H](N)[C@H](O)[C@H](C)O1 [Doxorubicin]	0	5.83	0	0	10.9	0	0	0	1.83	0	1.99	1.33	0	0	0
